# Tested on: hepatocytes
# Experiment: Seq-Well scRNA-Seq of hepatocytes after APAP overdose (signature scores, DEG vs untreated)
# Assay type: in vivo, mouse
smiles,measurement,setting,value
"CC(=O)Nc1ccc(O)cc1 [APAP, acetaminophen]",Cp avg_logFC,APAP composite vs UT,0.4362
same,Cyb5 avg_logFC,APAP composite vs UT,−0.7102
same,Cyp4a10 avg_logFC,APAP composite vs UT,1.135
same,Cyp4a14 avg_logFC,APAP composite vs UT,1.704
same,Fabp1 avg_logFC,APAP composite vs UT,−1.016
same,Fga avg_logFC,APAP composite vs UT,0.8285
same,Fgb avg_logFC,APAP composite vs UT,0.745
same,Fgg avg_logFC,APAP composite vs UT,0.6805
same,Fgl1 avg_logFC,APAP composite vs UT,0.8649
same,Fth1 avg_logFC,APAP composite vs UT,0.3784
same,Gclc avg_logFC,APAP composite vs UT,1.903
same,Gm13775 avg_logFC,APAP composite vs UT,−1.078
same,Gm15564 avg_logFC,APAP composite vs UT,1.821
same,Gm24601 avg_logFC,APAP composite vs UT,0.9844
same,Gm26924 avg_logFC,APAP composite vs UT,1.419
same,Gpx1 avg_logFC,APAP composite vs UT,−0.7686
same,Grip2 avg_logFC,APAP composite vs UT,0.8779
same,Hbb-bs avg_logFC,APAP composite vs UT,2.862
same,Hilpda avg_logFC,APAP composite vs UT,0.7786
same,Hmgcs2 avg_logFC,APAP composite vs UT,0.6293
same,Hmox1 avg_logFC,APAP composite vs UT,1.348
same,Hrg avg_logFC,APAP composite vs UT,0.5189
same,Igfbp4 avg_logFC,APAP composite vs UT,0.4353
same,Lars2 avg_logFC,APAP composite vs UT,1.711
same,Mat1a avg_logFC,APAP composite vs UT,1
same,Mfsd2a avg_logFC,APAP composite vs UT,0.6661
same,Mt1 avg_logFC,APAP composite vs UT,2.388
same,Mt2 avg_logFC,APAP composite vs UT,2.063
same,Mup3 avg_logFC,APAP composite vs UT,−0.8062
same,Mup5 avg_logFC,APAP composite vs UT,−1.371
same,Mup6 avg_logFC,APAP composite vs UT,−2.032
same,Mup7 avg_logFC,APAP composite vs UT,−1.116
same,Mup9 avg_logFC,APAP composite vs UT,−2.004
same,Mup11 avg_logFC,APAP composite vs UT,−3.214
same,Mup12 avg_logFC,APAP composite vs UT,−1.27
same,Mup15 avg_logFC,APAP composite vs UT,−1.316
same,Mup16 avg_logFC,APAP composite vs UT,−1.602
same,Mup17 avg_logFC,APAP composite vs UT,−2.354
same,Mup18 avg_logFC,APAP composite vs UT,−1.727
same,Mup19 avg_logFC,APAP composite vs UT,−2.396
same,Mup21 avg_logFC,APAP composite vs UT,−1.008
same,Ndrg2 avg_logFC,APAP composite vs UT,0.4122
same,Nudt7 avg_logFC,APAP composite vs UT,−1.564
same,Ppl avg_logFC,APAP composite vs UT,0.8798
same,Rbp4 avg_logFC,APAP composite vs UT,0.3014
same,Retsat avg_logFC,APAP composite vs UT,0.6813
same,S100a8 avg_logFC,APAP composite vs UT,1.128
same,S100a9 avg_logFC,APAP composite vs UT,1.343
same,Saa1 avg_logFC,APAP composite vs UT,−1.078
same,Selenbp2 avg_logFC,APAP composite vs UT,−1.19
same,Sephs2 avg_logFC,APAP composite vs UT,0.89
same,Sepp1 avg_logFC,APAP composite vs UT,0.4486
same,Serpina1a avg_logFC,APAP composite vs UT,−0.6752
same,Serpina1e avg_logFC,APAP composite vs UT,−0.662
same,Serpina1d avg_logFC,APAP composite vs UT,−0.494
same,Slco1a4 avg_logFC,APAP composite vs UT,0.5526
same,Snord118 avg_logFC,APAP composite vs UT,0.6174
same,Srxn1 avg_logFC,APAP composite vs UT,1.878
same,Sult1a1 avg_logFC,APAP composite vs UT,0.5605
same,Tnfrsf12a avg_logFC,APAP composite vs UT,1.118
same,Ttpa avg_logFC,APAP composite vs UT,0.6012
same,Ttr avg_logFC,APAP composite vs UT,−0.5306
same,mt-Co1 avg_logFC,APAP composite vs UT,−1.433
same,mt-Co2 avg_logFC,APAP composite vs UT,−1.397
same,mt-Cytb avg_logFC,APAP composite vs UT,−1.571
same,mt-Nd1 avg_logFC,APAP composite vs UT,−1.42
same,mt-Nd2 avg_logFC,APAP composite vs UT,−1.242
same,mt-Nd4 avg_logFC,APAP composite vs UT,−1.957
same,mt-Nd5 avg_logFC,APAP composite vs UT,−1.384
same,mt-Rnr1 avg_logFC,APAP composite vs UT,−0.4854
same,mt-Rnr2 avg_logFC,APAP composite vs UT,−0.7783
same,n-R5-8s1 avg_logFC,APAP composite vs UT,1.253
same,1-Mar logFC,APAP vs UT,−0.4778
same,2-Mar logFC,APAP vs UT,−0.5599
same,1110008F13Rik logFC,APAP vs UT,−0.4553
same,1600014C10Rik logFC,APAP vs UT,−0.4982
same,3110043O21Rik logFC,APAP vs UT,0.2694
same,8430408G22Rik logFC,APAP vs UT,−0.5021
same,AA474408 logFC,APAP vs UT,0.4364
same,Aadac logFC,APAP vs UT,−0.62
same,Abca1 logFC,APAP vs UT,0.7245
same,Abhd2 logFC,APAP vs UT,0.4844
same,Acox1 logFC,APAP vs UT,0.2752
same,Acsl4 logFC,APAP vs UT,0.3147
same,Acss2 logFC,APAP vs UT,−0.6201
same,Adh4 logFC,APAP vs UT,−0.5269
same,Adh5 logFC,APAP vs UT,−0.4914
same,Adh6-ps1 logFC,APAP vs UT,−0.4185
same,Adipor2 logFC,APAP vs UT,−0.4738
same,Agmat logFC,APAP vs UT,−0.4718
same,Ak3 logFC,APAP vs UT,0.289
same,Akr1c14 logFC,APAP vs UT,−0.5186
same,Akr1c20 logFC,APAP vs UT,−0.5542
same,Akr1e1 logFC,APAP vs UT,−0.2582
same,Alas1 logFC,APAP vs UT,−0.4898
same,Alb logFC,APAP vs UT,0.4203
same,Alcam logFC,APAP vs UT,0.3238
same,Aldh1a1 logFC,APAP vs UT,−0.4788
same,Aldh3a2 logFC,APAP vs UT,−0.8342
same,Aldh8a1 logFC,APAP vs UT,−0.6837
same,Aox3 logFC,APAP vs UT,−0.3333

# Source: patent US20230053540A1, “TREATMENT OF LIVER INJURY” (Massachusetts Institute of Technology, priority 2019, published 2023)
